# Measured values: patent publication US20090088432A1, “Thiazolinones and Oxazolinones and their Use as Ptp1b Inhibitors” (priority 2005, published 2009)
# Target: T1, Recombinant human Protein-tyrosine phosphatase1B (PTP1B) (Homo sapiens, UniProt P18031)
# T1 construct: Recombinant human Protein-tyrosine phosphatase1B (PTP1B) (amino acid 1-322 Biomol, USA); purchased Biomol, USA
# T1 sequence (P18031 1-322): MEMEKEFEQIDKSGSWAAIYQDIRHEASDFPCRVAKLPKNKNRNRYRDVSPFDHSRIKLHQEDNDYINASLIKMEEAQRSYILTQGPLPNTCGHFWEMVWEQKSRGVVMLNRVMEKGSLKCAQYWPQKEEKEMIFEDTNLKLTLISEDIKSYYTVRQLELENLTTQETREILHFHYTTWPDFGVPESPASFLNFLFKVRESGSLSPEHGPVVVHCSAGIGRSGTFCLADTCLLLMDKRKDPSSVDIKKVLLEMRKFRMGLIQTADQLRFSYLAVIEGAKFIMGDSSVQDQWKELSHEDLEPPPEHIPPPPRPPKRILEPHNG
# Assay: PTP1B enzyme inhibition assay (pNpp substrate)
# Assay type: biochemical
# Conditions: inhibition of recombinant human PTP1B, pNpp 5 mM, 30 mins at 25° C; inhibitor concentration not given
# Procedure: Protein tyrosine phosphatase 1B (PTP1B) is an intracellular enzyme which functions by removing the phosphate groups from phosphorylated tyrosine residues of cellular proteins. PTP1B has been implicated as a negative regulator of insulin action and therefore is of therapeutic interest. The ability of the test compounds to inhibit the activity of PTP1B is determined using an enzyme inhibition assay.
# The assay is performed using two independent substrates of PTP1B namely, p-nitrophenyl phosphate (pNpp) and the phosphorylated Epidermal growth factor receptor peptide (EGFR).
# In the assay performed with pNpp, the action of PTP1B results in the release of p-nitrophenol, which is yellow in colour and can be measured at 410 nm. In the case of the assay using EGFR, action of PTP1B results in the release of free phosphate group. This is trapped using a reagent containing ammonium molybdate and malachite green resulting in a colored complex whose absorbance can be measured at 620 nm.
# 1× Assay buffer 50 mM HEPES (pH 7.4) • 1 mM EDTA • 1 mM DTT • 0.05% Igepal® CA-630
# Dilute recombinant Human PTP1B 1:150 in 1× Assay buffer for 10× stock,
# Prepare 10× stock of pNpp (50 mM) in 1× Assay buffer
# Prepare 100× stock in 100% DMSO, dilute 1:10 with 1× Assay buffer to get 10× stock in 10% DMSO.
# PTP1B inhibition assay was performed using recombinant human PTP1B. PTP1B (0.016 μg/well) was incubated in a buffer containing 50 mM HEPES, 1 mM DTT, 1 mM EDTA and 0.05% Igepal® CA-630 with or without inhibitor (10× stock, final DMSO concentration is 1%) for 30 mins at 25° C. This was followed by addition of p-Nitrophenyl phosphate (pNpp) substrate (5 mM). The final volume of the reaction mixture is 50 μL and experiment was done in 96 well half area plate. The incubation was continued for 30 mins at 25° C. The conversion of pNpp to p-Nitrophenol (pNp) was measured at 410 nm in Spectramaxplus Spectrophotometer (Molecular Devices, USA).
row,Structure (SMILES),Activity Score
1,"CCC(C(=O)O)c1ccc(NC2=NC(=O)C(=Cc3cc4ccccc4cc3OCc3ccccc3)S2)cc1 (stereo not drawn) [Compound 48, 2-{4-[5-(3-Benzyloxy-naphthalen-2-ylmethylene)-4-oxo-4,5-dihydro-thiazol-2-ylamino]-phenyl}-butyric acid]",(+++) (+++ = >50% inhibition)
2,"O=C(O)CCc1ccc(NC2=NC(=O)C(=Cc3cc4ccccc4cc3OCc3ccccc3)S2)cc1 [Compound 49, 3-{4-[5-(3-Benzyloxy-naphthalen-2-ylmethylene)-4-oxo-4,5-dihydro-thiazol-2-ylamino]-phenyl}-propionic acid]",(++) (++ = 20-50% inhibition)
3,"O=C(O)Cc1ccc(NC2=NC(=O)C(=Cc3cccc(N4C(=O)c5ccccc5C4=O)c3)S2)cc1 [Compound 50, (4-{5-[3-(1,3-Dioxo-1,3-dihydro-isoindol-2-yl)-benzylidene]-4-oxo-4,5-dihydro-thiazol-2-ylamino}-phenyl)-acetic acid]",(+++) (+++ = >50% inhibition)
4,"O=C(O)Cc1ccc(NC2=NC(=O)C(=Cc3cccc(-n4cccc4)c3)S2)cc1 [Compound 51, {4-[4-Oxo-5-(3-pyrrol-1-yl-benzylidene)-4,5-dihydro-thiazol-2-ylamino]-phenyl}-acetic acid]",(+++) (+++ = >50% inhibition)
5,"CC(C(=O)O)c1ccc(NC2=NC(=O)C(=Cc3ccc4ccccc4c3)S2)cc1 (stereo not drawn) [Compound 53, 2-[4-(5-Naphthalen-2-yl-ethylene-4-oxo-4,5-dihydro-thiazol-2-ylamino)-phenyl]-propionic acid]",(++) (++ = 20-50% inhibition)
6,"CC(C(=O)O)c1ccc(NC2=NC(=O)C(=Cc3ccc(-c4ccccc4)cc3)S2)cc1 (stereo not drawn) [Compound 54, 2-[4-(5-Biphenyl-4-ylmethylene-4-oxo-4,5-dihydro-thiazol-2-ylamino)-phenyl]-propionic acid]",(+++) (+++ = >50% inhibition)
7,"O=C(O)CC(C(=O)O)c1ccc(NC2=NC(=O)C(=Cc3ccc(-c4ccccc4)cc3)S2)cc1 (stereo not drawn) [Compound 55, 2-[4-(5-Biphenyl-4-ylmethylene-4-oxo-4,5-dihydro-thiazol-2-ylamino)-phenyl]-succinic acid]",(++) (++ = 20-50% inhibition)
8,"COc1cc(C=C2SC(Nc3ccc(CC(=O)O)cc3)=NC2=O)cc(OC)c1O [Compound 56, {4-[c-(4-hydroxy-3,5-dimethoxy-benzylidene)-4-oxo-4,5-dihydro-thiazol-2-ylamino]-phenyl}-acetic acid]",(+) (+ = 10-20% inhibition)
9,"COc1cc(C=C2SC(Nc3ccc(CC(=O)O)cc3)=NC2=O)cc(OC)c1OC [Compound 59, {4-[4-Oxo-5-(3,4,5-trimethoxy-benzylidene)-4,5-dihydro-thiazol-2-ylamino]-phenyl}-acetic acid]",(+++) (+++ = >50% inhibition)
10,"O=C(O)Cc1ccc(NC2=NC(=O)C(=Cc3cccn3-c3ccc(Br)cc3)S2)cc1 [Compound 60, (4-{5-[1-(4-Bromo-phenyl)-1H-pyrrol-2-ylmethylene]-4-oxo-4,5-dihydro-thiazol-2-ylamino}-phenyl)-acetic acid]",(++) (++ = 20-50% inhibition)
11,"CC(=C1SC(Nc2ccc(CC(=O)O)cc2)=NC1=O)c1cccc(-n2cccc2)c1 [Compound 61, (4-{4-Oxo-5-[1-(3-pyrrol-1-yl-phenyl)-ethylidene]-4,5-dihydro-thiazol-2-ylamino}-phenyl)-acetic acid]",(+) (+ = 10-20% inhibition)
12,"O=C(O)Cc1ccc(NC2=NC(=O)C(=Cc3cccn3-c3ccccc3)S2)cc1 [Compound 62, {4-[4-Oxo-5-(1-phenyl-1H-pyrrol-2-ylmethylene)-4,5-dihydro-thiazol-2-ylamino]-phenyl}-acetic acid]",(+++) (+++ = >50% inhibition)
